# In patent publication US20090028795A1, “NOD1 as an Anti-Tumor Agent” (priority 2005, published 2009):
# Starred links: 1 amine or outer side, 2 acyl side, 3 side chain; linkers in the order of their positions; H or OH if unused. Non-standard residues stand in square brackets, D forms with d. No end group written: not given here. mesoDAP = meso-diaminopimelic acid, O=C(O)[C@@H](CCC[C@H](N[*:1])C(=O)[*:2])N[*:3]
# Experiments:
# [1] = system: MCF-7 and MCF-7 C20 cells; experiment: Sensitivity to apoptotic stimuli, parental MCF-7 versus MCF-7 C20 cells; type: cell-based, human; conditions: C20 compared with parental cells
# Source text: FIG. 1A-C illustrates Nod1 involvement in TNF-induced apoptosis. FIG. 1A provides a schematic diagram of the mutated gene that gave rise to a TNFα-resistant phenotype, and was later identified as a Nod1 mutant bearing a blasticidine (blast) gene insertion. The cell line bearing this Nod1 mutation is the MCF7-C20 cell line. The insertion from the pDisrup retroviral construct was mapped to the Nod1 gene. The junction of blasticidine fused with the Nod1 gene occurred at the 3′ end of the Nod1 gene between leucine-rich region 8 (LRR8) and leucine-rich region 9 (LRR9). […] Cell extracts from MCF-7 parental (called “wt”) and MCF-7 C20 cells were prepared and either immunoprecipitated with a monoclonal anti-NOD1 antibody (upper panel) or directly loaded onto an SDS-PAGE gel (lower panel), then transferred to PVDF membranes. Blots were analyzed by immunoblotting using the same monoclonal anti-NOD1 antibody. […] MCF-7 and MCF-7 C20 cells were treated with increasing concentrations of TNF (0-40 ng/ml) for 20 h. Cell viability was determined by propidium iodide (PI) exclusion assay and flow cytometry.
# (§1) Cell viability assays. Propidium iodide exclusion assay: Cells were stimulated as indicated for 2 days. Subsequently, cells were harvested, washed twice in FACS buffer (PBS containing 1% FCS and 0.1% NaN3) and resuspended in propidium iodide (PI)-containing FACS buffer (4 ug/ml). The extent of cell death was analyzed with a FACSCalibur flow cytometer (Becton Dickinson, Mountain View, Calif.). DAPI staining: MCF-7 cells were plated in chamber slides, and stimulated for 2 days. Cells were washed with PBS and apoptotic nuclei were stained with 1 μg/ml DAPI (Sigma Chemical Co., St. Louis, Mo.). Cells were fixed in 4% paraformaldehyde and examined by fluorescence microscopy.
# MCF-7 Nod1 cells = experiment: Propidium iodide exclusion cell death assay, MCF-7 cells over-expressing Nod1; type: cell-based, human; conditions: for effect on γTriDAP-induced cell death: caspase inhibitor 50 uM, 30 min before γTriDAP/CHX for 48 h; for effect on γTriDAP-induced apoptosis: inhibitor 100 uM, 30 min prior to γTriDAP/CHX for 48 h
# Method: as §1
# (§2) To further investigate the role of Nod1 in apoptosis, a variety of cell types were incubated with the Nod1 ligand, […] (γTriDAP), which specifically activates Nod1. The cell types tested included the parental MCF-7 cell line, the Nod1-deficient MCF-7C20 clone, and a cell line engineered to contain an additional human Nod1 allele (MCF-7Nod1) so that Nod1 was over-expressed. To determine whether the resistance of C20 cells to γTriDAP-induced apoptosis resulted from the absence of Nod1, human Nod1 was stably expressed in MCF-7 C20 cells to produce Nod1-sufficient C20 cells (C20/Nod1). As another control, the parental MCF-7 cell line was transfected with an empty retroviral vector to generate MCF-7 Blasto cells. Cells were treated with γTriDAP in the presence or absence of cycloheximide (CHX) and cell death was then determined by propidium iodide staining and flow cytometry.
# [2] = system: MCF-7 Blasto, MCF-7 C20, MCF-7 C20/Nod1 and MCF-7 RIP2ΔCARD cells; experiment: Estrogen-induced proliferation (3H-thymidine) of MCF-7 cell lines; type: cell-based, human; conditions: for proliferative response to added estrogen: grown in the absence of estrogen
# Method: (§3) FIG. 11A-D illustrate that the presence of Nod1 prevents tumor growth in SCID mice. FIG. 11A graphically illustrates the tumor volume in mice injected with MCF-7 C20 (left) and MCF-7 C20/Nod1 (right) cells as a function of time. The cells (3×10^6 cells/mouse) were injected into the flanks of female SCID mice. Tumor size was measured once a week and volume was determined according to the formula (PW2×L)/2. Each line represents tumor growth observed in one mouse (n=4). As illustrated, the tumor volume diminished in mice that received Nod1 expressing tumor cells (C20/Nod1). […] FIG. 11B graphically illustrates that implanting estrogen pellets into mice prior to injection of MCF-7 Blasto, MCF-7 C20 and MCF-7 C20/Nod1 cells (3×10^6 cells/mouse) increases tumor growth except when the tumor cells express Nod1 (the C20/Nod1 cells). […] The tumor volume was determined as described above. FIG. 11C graphically illustrates the tumor volume over time in mice injected with MCF-7 Blasto, MCF-7 C20 and MCF-7 RIP2ΔCARD cells. […] FIG. 11D graphically illustrates tumor cell growth as a function of estrogen concentration. […] MCF-7 Blasto, MCF-7 C20, MCF-7 C20/Nod1 and MCF-7 RIP2ΔCARD cells were exposed to increasing concentrations of 17β-estradiol, pulsed with ^3H-thimidine and cell growth was determined by liquid scintillation. Data are representative of at least 3 independent experiments.
# Retroviral transfections. The various genes used in this study were cloned into pMSCV-Blasto, pBabe-Puro or pBabe-Neo retroviral vectors. MCF-7 cells were stably transfected using available procedures. Briefly, amphotropic 293 cells were transfected with retroviral vectors encoding selected Nod1, Nod2 and other proteins. Twenty-four hours post-transfection, cells were incubated at 32° C. overnight to produce viral particles. Target cells were infected the next day with virus-containing 293 cell supernatants containing recombinant retroviral particles. […] Cells were harvested on glass fiber filters and radioactivity measured by liquid scintillation. […]
# MCF-7 C20/Nod1 cells = experiment: Propidium iodide exclusion apoptosis assay, estrogen/tamoxifen studies; type: cell-based, human
# Source text: FIG. 12A-C illustrates that estrogen increases γTriDAP-induced apoptosis and tamoxifen inhibits γTriDAP-induced apoptosis in various MCF-7 tumor cell lines. FIG. 12A graphically illustrates the percent apoptosis in MCF-7 Blasto, MCF-7 C20 and MCF-7 C20/Nod1 cells cultured in increasing amounts or estrogen and either cycloheximide (CHX) or CHX plus γTriDAP (γTri). FIG. 12B graphically illustrates the percent apoptosis in MCF-7 Blasto, MCF-7 C20 and MCF-7 C20/Nod1 cells cultured in increasing amounts of tamoxifen and either cycloheximide (CHX) or CHX plus γTriDAP (γTri). For the estrogen studies, MCF-7 cells were cultured in charcoal-treated medium and stimulated with γTriDAP/CHX in the presence of increasing concentrations of estrogen (E2) and cell viability was measured by propidium iodide (PI) exclusion. For the tamoxifen studies, cells were treated with tamoxifen prior to addition of γTriDAP/CHX and cell viability measured by PI exclusion. […] Total protein extracts from MCF-7 Blasto, MCF-7 C20 and MCF-7 C20/Nod1 cells and from cells isolated from tumors were analyzed by immunoblotting using antibody against estrogen receptor (ERα), and ERK2 as loading control.
# as §1
# To determine whether the presence of estrogens modulates Nod1-induced apoptotic pathway, cells were cultured in medium containing charcoal-treated serum.
# MCF-7 C20 cells = experiment: Propidium iodide exclusion cell death assay, Nod1-deficient MCF-7 C20 cells; type: cell-based, human; conditions: C20 cells, charcoal-treated serum, γTriDAP/CHX
# Method: as §1
# To further investigate the role of Nod1 in apoptosis, a variety of cell types were incubated with the Nod1 ligand, […] (γTriDAP), which specifically activates Nod1. The cell types tested included the parental MCF-7 cell line, the Nod1-deficient MCF-7C20 clone, and a cell line engineered to contain an additional human Nod1 allele (MCF-7Nod1) so that Nod1 was over-expressed. […] Cells were treated with γTriDAP in the presence or absence of cycloheximide (CHX) and cell death was then determined by propidium iodide staining and flow cytometry.
# [3] = system: MCF-7 Blasto, MCF-7 C20 and MCF-7 C20/Nod1 tumors; experiment: Xenograft tumor growth in SCID mice with estrogen pellets; type: in vivo
# Method: as §3
# Human xenografts in nude mice. MCF-7 Blasto, MCF-7 C20 and MCF-7 C20/Nod1 cells were trypsinized, washed once with PBS and resuspended to a concentration of 1.5×10^7/ml. Two hundred microliters of each suspension were inoculated subcutaneously into the flank of athymic SCID/SCID or SCID/Nod (non-obese diabetic) female mice. Tumor size was assessed once a week. Tumor volume was calculated.
# In most studies, tumor formation by MCF-7 cells requires supplementation of estrogens for tumorigenesis in nude mice, even when cells are inoculated at high concentration. To further examine the role of estrogen in tumorigenesis, all three cell lines were injected into mice along with estrogen pellets (FIG. 11B). […]
# MCF-7 cells [4] = experiment: Propidium iodide exclusion cell death assay, wild-type (parental/Blasto) MCF-7 cells; type: cell-based, human
# Method: as §1, §2
# MCF-7 cells [5] = experiment: Apoptosis in the presence of TNFα (FIG. 8C); type: cell-based, human; conditions: with TNFα
# Method: FIG. 8A-D illustrate that a synergistic relationship exists between NOD1 and TNFα. FIG. 8A graphically illustrates that the percentage of apoptotic cells increases in dose-specific manner as the concentration of NOD1 increases from 0.0 to 100 μg/ml and the concentration of TNFα increases from 0.5 ng/ml to 1 ng/ml. FIG. 8B graphically illustrates that the percentage of apoptotic cells increases in dose-specific manner as the concentration of cycloheximide increases from 0.0 to 3 μg/ml and the concentration of TNFα increases from 0.5 ng/ml to 1 ng/ml. […] FIG. 8D illustrates NOD1 expression at various time points after exposure of MCF-7 cells to TNFα.
# [6] = system: poly(ADP-ribose)polymerase (PARP) and capases 6, 7, 8 and 9; experiment: Western blot of PARP and caspase cleavage in MCF-7 cells; type: cell-based, human; conditions: CHX 0.5 ug/ml, 24 h
# Method: Cleavage of PARP and various caspases was detected by Western blot analysis of cell MCF-7 Blasto, MCF-7 C20 and MCF-7 Nod1 after stimulation with γTriDAP, αTriDAP or medium (control) in the presence or absence of CHX (0.5 ug/ml) for 24 h. Cells were harvested, subjected to western blotting and PARP, caspases, p20, p41/43 and p35 were detected with antibodies reactive thereof.
# Western blot analysis and immunoprecipitation. Cells were washed extensively and lysed using lysis buffer containing 50 mM Hepes, 100 mM NaCl, 2 mM EDTA, 10% glycerol, 1% Nonidet P-40, 14 μM pepstatin A, 100 uM leupeptin, 3 mM benzamidine, 1 mM PMSF, 1 mM sodium pyrophosphate, 10 mM sodium orthovanadate, 100 U/ml aprotinin, and 100 mM sodium fluoride. After incubation for 30 min on ice, cell lysates were centrifuged (14000 rpm, 10 min, 4° C.) and the supernatants were recovered. For immunoprecipitation, cell lysates were mixed with 5 μg of antibody for 3 hour at 4° C. under constant agitation. Immune complexes were allowed to bind to 20 μl protein A-Sepharose beads overnight, beads were washed three times with lysis buffer. Immunoprecipitates were separated on SDS-PAGE and transferred to PVDF membranes.
# SK-BR3 = experiment: Apoptosis (PI staining), SK-BR3 cells; type: cell-based, human; conditions: plus TNFα and cycloheximide (FIG. 9B)
# Method: as §1
# To determine if Nod1-dependent apoptosis occurs in other human cell lines, a series of epithelial cell lines were examined where Nod1 was stably expressed to enhance sensitivity to activation of the Nod1 pathway. Cells were treated with TNFα (T) and γTriDAP (γ) in the presence or absence of CHX (C) and monitored for viability by PI staining as a measure of apoptosis (Table 1).
compound,measurement,setting,value
CC[C@@]1(O)C(=O)OCc2c1cc1n(c2=O)Cc2cc3ccccc3nc2-1 [camptothecin],sensitivity of MCF-7 C20 cells versus parental MCF-7 cells to induced cell death,[1],equally sensitive
COc1cccc2c1C(=O)c1c(O)c3c(c(O)c1C2=O)C[C@@](O)(C(=O)CO)C[C@@H]3O[C@H]1C[C@H](N)[C@H](O)[C@H](C)O1 [doxirubicin],sensitivity of MCF-7 C20 cells versus parental MCF-7 cells to induced cell death,[1],equally sensitive
COC(=O)CC(NC(=O)OC(C)(C)C)C(=O)CF [Boc-D-FMK],effect on γTriDAP-induced cell death,MCF-7 Nod1 cells,abrogated
CC/C(=C(\c1ccccc1)c1ccc(OCCN(C)C)cc1)c1ccccc1 [tamoxifen],effect on estrogen-induced proliferation,[2]; MCF-7 C20 cells (data not shown),blocked
same,effect on γTriDAP-induced cell death,MCF-7 C20/Nod1 cells; MCF-7 cell lines treated prior to γTriDAP/CHX (FIG. 12B),partially blocked
z-VAD-FMK,effect on γTriDAP-induced cell death,MCF-7 Nod1 cells,abrogated
same,effect on γTriDAP-induced apoptosis,MCF-7 Nod1 cells,blocked γTriDAP-induced apoptosis nearly completely
TNFα,sensitivity of MCF-7 C20 cells versus parental MCF-7 cells to induced cell death,[1],significantly more resistant
IETD,effect on γTriDAP-induced apoptosis,MCF-7 Nod1 cells,marked inhibitory effects
17β-estradiol [estrogen],proliferative response to added estrogen,[2]; MCF-C20 and MCF-7 RIP2ΔCARD cells,strong proliferative response
same,proliferative response to added estrogen,[2]; parental and MCF-7 C20/Nod1 cells,neither the parental nor MCF-7 C20/Nod1 cell lines were stimulated to proliferate
same,effect upon apoptosis,MCF-7 C20 cells,little or no effect
same,tumor growth,"[3]; mice injected with MCF-7 Blasto cells, estrogen pellets",tumors grew
same,tumor growth,"[3]; mice injected with MCF-7 C20 cells, estrogen pellets",grew even larger
same,tumor growth,"[3]; mice that received MCF-7 C20/Nod1, estrogen pellets",did not grow tumors
same,effect on γTriDAP-induced apoptosis,"MCF-7 C20/Nod1 cells; C20/Nod1 and Blasto cells, charcoal-treated serum, increasing estrogen",apoptosis increased in a dose-dependent manner
C[C@@H]1C[C@@H]([C@H](O)CC2CC(=O)NC(=O)C2)C(=O)[C@@H](C)C1 [cycloheximide],cell death / apoptosis,"MCF-7 cells [4]; wild type cells, agent alone",No cell death
αTriDAP: inactive control tri-peptide where mesoDAP was bound to Glu in the α position rather than in the γ position (Ala-Glu-[mesoDAP]; not fully specified),apoptosis in the presence of TNFα,MCF-7 cells [5],may actually inhibit apoptosis
same,cell death,"MCF-7 cells [4]; MCF-7 cells, in the presence of cycloheximide",did not induce cell death
same,"proteolytic cleavage of PARP and capases 6, 7, 8 and 9",[6],not
same,apoptosis of SKBR3 cells,SK-BR3,reduced apoptosis
